Where “and” joins values, the source holds several entries; their conditions need not be identical. Identical values can stand only once.
System: collagen-induced arthritis
Experiment: Collagen-induced arthritis (CIA) model in rats: body weight, paw volume, clinical scores, clinical observations; as to Average detailed clinical score, left hind limb: key of the grades not given here; as to Average detailed clinical score, right hind limb: key of the grades not given here; as to Detailed Clinical Scores, left forelimb: key of the grades not given here; as to Detailed Clinical Scores, left hind limb: key of the grades not given here; as to Detailed Clinical Scores, right forelimb: key of the grades not given here; as to Detailed Clinical Scores, right hind limb: key of the grades not given here; as to Detailed Clinical Scores, score: key of the grades not given here; as to Mean overall clinical score ± SD: key of the grades not given here; as to overall clinical score: key of the grades not given here
Conditions: for Average detailed clinical score, right hind limb / Average detailed clinical score, score / Mean overall clinical score ± SD / Average detailed clinical score, left forelimb / Average detailed clinical score, left hind limb / Average detailed clinical score, right forelimb / Overall clinical score / Detailed Clinical Scores, left forelimb / Detailed Clinical Scores, left hind limb / Detailed Clinical Scores, right forelimb / Detailed Clinical Scores, right hind limb / Detailed Clinical Scores, score: CIA rats; for Mean animal paw volume ± SD: group mean; for Overall clinical score: individual animals #1-8; for Detailed Clinical Scores, left forelimb / Detailed Clinical Scores, left hind limb / Detailed Clinical Scores, right forelimb / Detailed Clinical Scores, right hind limb / Detailed Clinical Scores, score: individual animals ID 1-8
Protocol: Prior to be randomly placed in treatment groups, animals were weighed, and paw volume was measured. Once randomly assigned to treatment groups, on Day 0, animals in groups 2-9 were immunized by subcutaneous injection at the base of the tail.
The immunization comprised 100 μL of the CFA+Collagen emulsion (prepared according to the method in Experimental Method A). Animals in group one received no immunization. Seven days after the first injection, animals in groups 2-9 received a booster immunization comprising 200 μL of the IFA+Collagen emulsion (prepared according to the method in Experimental Method A).
Starting on Day 0, animals in group 1 and 2 were administered daily doses of the vehicle per os (P.O.) for 21 days. […] The twice daily doses for animals in groups 4-9 were 8 hours apart (e.g., the first dose at 8:00 AM and the second dose at 4:00 PM).
Body weight of all animals was recorded daily for the 21-day period. Blind clinical scores on all four limbs were conducted for all animals in the study. Animals were assessed prior to receiving their first dose of the compound or control, and scores for each limb were combined to a total daily score for each animal. Clinical score assessments were performed on Day 0, 6, 12, 13, 14, 15, 18, 19, and 21 (for a total of 9 daily scores).
Paw volume was recorded for each animal on Day 0, 6, 12, 13, 14, 15, 18, 19, and 21 (for a total of 9 measurements). To measure paw volume, animals were gently held with one hand while the hind paw was placed into a plethysmometer with the other hand. Lipid displacement by the paw was recorded and used to represent paw volume.
All data measured and recorded was analyzed using SPSS 16.0 software. Groups were compared using one-way ANOVA and significance was set at p<0.05.

Structure (SMILES): CNC(=O)c1[nH]c(C(=O)NC2CCC2)cc1O[C@@H](C)c1ccccc1 (stereo in doubt) [Example 101, N^5-cyclobutyl-N^2-methyl-3-(1-phenylethoxy)-1H-pyrrole-2,5-dicarboxamide]
- Average detailed clinical score, right hind limb (Day 0, 30 mg/kg): 0.00
- Average detailed clinical score, score (Day 0, 30 mg/kg): 0.00
- Mean overall clinical score ± SD (Day 0, 30 mg/kg): 0 ± 0
- Mean animal paw volume ± SD (Day 6, L paw, 3 mg/kg): 1.34 mL
- Mean animal paw volume ± SD (Day 6, L paw, 10 mg/kg): 1.32 mL
- Mean animal paw volume ± SD (Day 6, L paw, 30 mg/kg): 1.33 mL
- Mean animal paw volume ± SD (Day 6, R paw, 3 mg/kg): 1.35 mL
- Mean animal paw volume ± SD (Day 6, R paw, 10 mg/kg): 1.32 mL
- Mean animal paw volume ± SD (Day 6, R paw, 30 mg/kg): 1.33 mL
- Average detailed clinical score, left forelimb (Day 6, 3 mg/kg): 0.00
- Average detailed clinical score, left hind limb (Day 6, 3 mg/kg): 0.00
- Average detailed clinical score, right forelimb (Day 6, 3 mg/kg): 0.00
- Average detailed clinical score, right hind limb (Day 6, 3 mg/kg): 0.00
- Average detailed clinical score, score (Day 6, 3 mg/kg): 0.00
- Mean overall clinical score ± SD (Day 6, 3 mg/kg): 0 ± 0
- Overall clinical score (Day 6, 3 mg/kg): 0
- Average detailed clinical score, left forelimb (Day 6, 10 mg/kg): 0.00
- Average detailed clinical score, left hind limb (Day 6, 10 mg/kg): 0.00
- Average detailed clinical score, right forelimb (Day 6, 10 mg/kg): 0.00
- Average detailed clinical score, right hind limb (Day 6, 10 mg/kg): 0.00
- Average detailed clinical score, score (Day 6, 10 mg/kg): 0.00
- Mean overall clinical score ± SD (Day 6, 10 mg/kg): 0 ± 0
- Overall clinical score (Day 6, 10 mg/kg): 0
- Average detailed clinical score, left forelimb (Day 6, 30 mg/kg): 0.00
- Average detailed clinical score, left hind limb (Day 6, 30 mg/kg): 0.00
- Average detailed clinical score, right forelimb (Day 6, 30 mg/kg): 0.00
- Average detailed clinical score, right hind limb (Day 6, 30 mg/kg): 0.00
- Average detailed clinical score, score (Day 6, 30 mg/kg): 0.00
- Mean overall clinical score ± SD (Day 6, 30 mg/kg): 0 ± 0
- Mean animal paw volume ± SD (Day 12, L paw, 3 mg/kg): 1.41 mL
- Mean animal paw volume ± SD (Day 12, L paw, 10 mg/kg): 1.41 mL
- Mean animal paw volume ± SD (Day 12, L paw, 30 mg/kg): 1.33 mL
- Mean animal paw volume ± SD (Day 12, R paw, 3 mg/kg): 1.40 mL
- Mean animal paw volume ± SD (Day 12, R paw, 10 mg/kg): 1.41 mL
- Mean animal paw volume ± SD (Day 12, R paw, 30 mg/kg): 1.36 mL
- Detailed Clinical Scores, left forelimb (Day 12, 3 mg/kg): 0
- Detailed Clinical Scores, left hind limb (Day 12, 3 mg/kg): 0 (7×) and 1
- Detailed Clinical Scores, right forelimb (Day 12, 3 mg/kg): 0 (6×) and 1 (2×)
- Detailed Clinical Scores, right hind limb (Day 12, 3 mg/kg): 0
- Detailed Clinical Scores, score (Day 12, 3 mg/kg): 0 (5×) and 1 (3×)
- Detailed Clinical Scores, left forelimb (Day 12, 10 mg/kg): 0
- Detailed Clinical Scores, left hind limb (Day 12, 10 mg/kg): 1 (2×) and 0 (6×)
- Detailed Clinical Scores, right forelimb (Day 12, 10 mg/kg): 0
- Detailed Clinical Scores, right hind limb (Day 12, 10 mg/kg): 0 (7×) and 2
- Detailed Clinical Scores, score (Day 12, 10 mg/kg): 1 (2×) and 0 (5×) and 2
- Detailed Clinical Scores, left forelimb (Day 12, 30 mg/kg): 0
- Detailed Clinical Scores, left hind limb (Day 12, 30 mg/kg): 0
- Detailed Clinical Scores, right forelimb (Day 12, 30 mg/kg): 0
- Detailed Clinical Scores, right hind limb (Day 12, 30 mg/kg): 1 and 0 (7×)
- Detailed Clinical Scores, score (Day 12, 30 mg/kg): 1 and 0 (7×)
- Average detailed clinical score, left forelimb (Day 12, 3 mg/kg): 0.00
- Average detailed clinical score, left hind limb (Day 12, 3 mg/kg): 0.13
- Average detailed clinical score, right forelimb (Day 12, 3 mg/kg): 0.25
- Average detailed clinical score, right hind limb (Day 12, 3 mg/kg): 0.00
- Average detailed clinical score, score (Day 12, 3 mg/kg): 0.38
- Mean overall clinical score ± SD (Day 12, 3 mg/kg): 0 ± 1
- Overall clinical score (Day 12, 3 mg/kg): 0 (5×) and 1 (3×)
- Average detailed clinical score, left forelimb (Day 12, 10 mg/kg): 0.00
- Average detailed clinical score, left hind limb (Day 12, 10 mg/kg): 0.25
- Average detailed clinical score, right forelimb (Day 12, 10 mg/kg): 0.00
